Reference: patent US5489591A, “S-triazine derivative and remedy for estrogen-dependent disease containing said derivative as effective component” (Zenyaku Kogyo Kabushiki Kaisha, priority 1992, dated 1996)
pIC50: −log10 of the molar value. Counter-ions that a name gives are not always drawn.

Columns and labels:
[1] = target: T1, cholesterol side-chain cleaving enzyme (Sus scrofa, UniProt P10612); assay: Inhibitory activity against cholesterol side-chain cleaving enzyme (Pharmacological Test 2, porcine adrenal mitochondria); assay type: biochemical; conditions: substrate 5-cholesten-3β-ol 5.0×10^-6 M, read-out: SCC-IC50
T1 construct: porcine adrenal mitochondria; from tissue; host or cells: porcine adrenal mitochondria
T1 sequence (P10612 40-520): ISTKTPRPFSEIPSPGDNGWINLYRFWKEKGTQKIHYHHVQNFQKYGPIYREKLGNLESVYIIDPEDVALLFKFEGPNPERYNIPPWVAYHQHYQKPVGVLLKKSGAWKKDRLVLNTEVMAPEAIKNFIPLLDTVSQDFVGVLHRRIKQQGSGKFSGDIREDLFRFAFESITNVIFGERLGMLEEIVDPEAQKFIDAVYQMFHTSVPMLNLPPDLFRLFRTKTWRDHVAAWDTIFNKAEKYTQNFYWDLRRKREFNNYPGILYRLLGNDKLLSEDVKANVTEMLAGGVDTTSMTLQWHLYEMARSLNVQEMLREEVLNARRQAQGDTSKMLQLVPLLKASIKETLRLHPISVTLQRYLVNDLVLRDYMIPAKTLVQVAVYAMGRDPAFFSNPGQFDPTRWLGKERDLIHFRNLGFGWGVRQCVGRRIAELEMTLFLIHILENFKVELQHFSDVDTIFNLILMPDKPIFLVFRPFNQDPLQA
Description: Inhibitory activity against cholesterol side-chain cleaving enzyme was determined according to the method of M. Shikita and P. F. Hall [Proc. Nat. […] Briefly, the each compound to be tested was added to a reaction vial containing porcine adrenal mitochondria, [4-^14 C]5-cholesten-3β-ol (250 Bq/5 nmol) and NADPH. […] These were separated by extracting the reaction mixture with methylene-dichloride followed by purifying with thin-layer chromatography. Substrate (5-cholesten-3β-ol) and reaction product (3β-hydroxypregn-5-en-20-one) were respectively measured by a liquid scintillation counter. The measured quantity of 3β-hydroxypregn-5-en-20-one was used to determine cholesterol side-chain cleaving activity which was compared with the activity when incubated without inhibitor to calculate inhibition ratio (%).

[2] = Acute toxicity in ICR female mice, oral (Pharmacological Test 4); conditions: mouse, in vivo, suspended in distilled water with 1% hydroxypropylcellulose, observation for fourteen days
Text: The acute toxicity of the compounds of the present invention was examined by the following method.

Aromatase = target: T2, Aromatase (Homo sapiens, UniProt P11511); assay: Aromatase inhibitory activity (Pharmacological Test 1, human placenta microsome); assay type: biochemical; conditions: substrate 4-androsten-3,17-dione 1.0×10^-6 M, read-out: AI-IC50
T2 construct: human placenta microsome; from tissue; host or cells: human placenta microsomes
T2 sequence (P11511 1-503): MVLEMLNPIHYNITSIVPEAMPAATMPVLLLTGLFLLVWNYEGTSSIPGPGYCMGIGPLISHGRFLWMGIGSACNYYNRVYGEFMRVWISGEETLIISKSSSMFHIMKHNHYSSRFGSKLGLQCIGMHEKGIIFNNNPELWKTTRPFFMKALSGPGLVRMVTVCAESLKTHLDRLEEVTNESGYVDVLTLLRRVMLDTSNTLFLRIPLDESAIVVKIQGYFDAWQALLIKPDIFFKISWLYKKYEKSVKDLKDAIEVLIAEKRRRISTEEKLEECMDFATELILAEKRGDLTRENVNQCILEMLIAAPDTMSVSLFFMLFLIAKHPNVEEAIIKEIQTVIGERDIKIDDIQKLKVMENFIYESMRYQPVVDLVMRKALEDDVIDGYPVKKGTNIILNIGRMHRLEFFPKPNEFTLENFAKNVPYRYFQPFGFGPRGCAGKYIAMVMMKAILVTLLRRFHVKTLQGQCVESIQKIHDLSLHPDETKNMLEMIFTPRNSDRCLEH
Description: Aromatase inhibitory activity was determined according to the method of E. A. Thompson and P. K. Siiteri [J. Biol. Chem., 249, 5364-5372 (1974)]. The each compound to be tested was added to a reaction vial containing human placenta microsome, [1β,2 β-^3 H]4-androsten-3,17-dione (3.3 kBq/500 pmol) and NADPH. […] The obtained [^3 H]H2 O was measured by a liquid scintillation counter. The measured quantity of [3H]H20 was used to determine aromatase activity, and was compared with the activity when incubated without inhibitor to calculate inhibition ratio (%).

Compound | pIC50 [1] | LD50 at 336 h [2] | pIC50 (Aromatase)
c1cn(-c2nc(N3CCOCC3)nc(N3CCSC3)n2)cn1 [Compound 7, 2-(1-Imidazolyl)-4-morpholino-6-(3-thiazolidinyl)-1,3,5-triazine] | 4.14 | 300 to 400 mg/kg | 8.18
N#CC1(c2ccccc2)CCN(c2nc(N3CCOCC3)nc(-n3ccnc3)n2)CC1 [Compound 13, 2-(4-Cyano-4-phenylpiperidino)-4-(1-imidazolyl)-6-morpholino-1,3,5-triazine] | 4.66 | > 400 mg/kg | 8.05
c1cn(-c2nc(N3CCOCC3)nc(N3CCOCC3)n2)cn1 [Compound 16, 2-(1-Imidazolyl)-4,6-dimorpholino-1,3,5-triazine] | < 4.00 | 200 to 300 mg/kg | 8.28
c1cn(-c2nc(N3CCOCC3)nc(N3CCSCC3)n2)cn1 [Compound 37, 2-(1-Imidazolyl)-4-morpholino-6-thiomorpholino-1,3,5-triazine] | < 4.00 | > 400 mg/kg | 7.96
c1ccc(C2CCN(c3nc(N4CCOCC4)nc(-n4ccnc4)n3)CC2)cc1 [Compound 38, 2-(1-Imidazolyl)-4-morpholino-6-(4-phenylpiperidino)-1,3,5-triazine] | 4.64 | > 400 mg/kg | 7.42
c1cnc(N2CCN(c3nc(N4CCOCC4)nc(-n4ccnc4)n3)CC2)nc1 [Compound 44, 2-(1-Imidazolyl)-4-morpholino-6-[4-(2-pyrimidinyl)-1-piperazinyl]-1,3,5-triazine] | < 4.00 |  | 7.48
O=[N+]([O-])c1ccc(N2CCN(c3nc(N4CCOCC4)nc(-n4ccnc4)n3)CC2)cc1 [Compound 45, 2-(1-Imidazolyl)-4-morpholino-6-[4-(4-nitrophenyl)-1-piperazinyl]-1,3,5-triazine] | < 4.00 |  | 8.14
OC1CCN(c2nc(N3CCOCC3)nc(-n3ccnc3)n2)CC1 [Compound 46, 2-(4-Hydroxypiperidino)-4-(1-imidazolyl)-6-morpholino-1,3,5-triazine] | 4.00 |  | 7.28
OCCC1CCCCN1c1nc(N2CCOCC2)nc(-n2ccnc2)n1 (stereo not drawn) [Compound 47, 2-[2-(2-Hydroxyethyl)piperidino]-4-(1-imidazolyl)-6-morpholino-1,3,5-triazine] | < 4.00 |  | 7.36
CCCCN(c1ccccc1)c1nc(-n2ccnc2)nc(-n2ccnc2)n1 [Compound 50, 2-(N-n-Butyl-N-phenylamino)-4,6-bis (1-imidazolyl)-1,3,5-triazine] | 4.82 |  | 7.80
CN(c1ccc([N+](=O)[O-])cc1)c1nc(-n2ccnc2)nc(-n2ccnc2)n1 [Compound 52, 2,4-Bis(1-imidazolyl)-6-[N-methyl-N-(4-nitrophenyl)amino]-1,3,5-triazine] | < 4.00 |  | 8.00
CN(c1ccc(Cl)cc1)c1nc(-n2ccnc2)nc(-n2ccnc2)n1 [Compound 54, 2-[N-(4-Chlorophenyl)-N-methylamino]-4,6-bis(1-imidazolyl)-1,3,5-triazine] | 4.72 |  | 8.07
CN(c1ccc(Cl)cc1)c1nc(N2CCOCC2)nc(-n2ccnc2)n1 [Compound 55, 2-[N-(4-Chlorophenyl)-N-methylamino]-4-(1-imidazolyl)-6-morpholino-1,3,5-triazine] | 4.59 | > 400 mg/kg | 8.11
CN(c1ccc(N)cc1)c1nc(N2CCOCC2)nc(-n2ccnc2)n1 [Compound 56, 2-[N-(4-Aminophenyl)-N-methylamino]-4-(1-imidazolyl)-6-morpholino-1,3,5-triazine] | < 4.00 |  | 7.49
Nc1ccc(N2CCN(c3nc(N4CCOCC4)nc(-n4ccnc4)n3)CC2)cc1 [hydrochloride of No. 57, Hydrochloride of 2-[4-(4-aminophenyl)-1-piperazinyl]-4-(1-imidazolyl)-6-morpholino-1,3,5-triazine] | < 4.00 |  | 7.51
